Data from patent publication US20240358693A1, “METHODS OF TREATING PAIN” (Aisa Pharma, Inc., priority 2023, published 2024).

How the values were obtained:
Type in all cases: in vitro ADME
[1] = In vitro equilibrium dialysis (RED) protein binding, rat plasma; conditions: male, Sprague-Dawley, pH 7.4
Experimental: (§1) Cilnidipine was tested by PsychoGenics using standard methodology in 96-well RED (Rapid Equilibrium Dialysis) plates from Thermo Fisher Scientific. Male Sprague-Dawley plasma and brain were obtained from BioIVT to provide the required protein matrix. Plasma was used undiluted, and brain homogenate was diluted 3 to 1 with PBS, pH 7.4. The protein matrix was spiked with the test compound dissolved in DMSO to achieve a 10 μM solution. Three chambers were used to allow for triplicate measures with a final DMSO concentration of <1% in each. The dialysate compartments of the 96-well dialysis chamber was loaded with PBS, pH 7.4 and the sample side was loaded with equal volume of the spiked protein matrix. The dialysis plate was then sealed and incubated at 37° C. for 4 h. After the incubation, samples were taken from each compartment. The buffer side was diluted with the appropriate matrix (plasma or brain homogenate) and the protein matrix side diluted with phosphate buffer. Resultant samples were then crashed in acetonitrile, centrifuged and the supernatant mixed with an aqueous solution providing samples for UPLC-MS/MS analysis. […] This control sample served as the basis for the determination of recovery. […] Samples were analyzed by UPLC-MS/MS using […] (MRM). The UPLC conditions consisted of a binary LC pump with autosampler, an InertSustain column (C18 column, 2.1×50 mm), utilizing gradient elution. The peak areas of the test compound in the buffer and test samples were used to calculate percent binding and recovery according to the following formulas: […]
(§2) The recovery determination serves as an indicator of reliability of the calculated protein binding value.
(§3) The characterization of protein binding is defined using the following ranges:
(§4) • Low 0 to 50% • Moderate 50 to 90% • High 90 to 99% • Very High>99%

[2] = In vitro equilibrium dialysis (RED) protein binding, rat brain homogenate; conditions: male, Sprague-Dawley, rat, pH 7.4
Experimental: as §1, §2, §3, §4

rat plasma proteins = assay: In vitro equilibrium dialysis (RED) protein binding, rat plasma; conditions: male, Sprague-Dawley, plasma, 4 h, 10 μM, pH 7.4
Experimental: as §1, §2, §3, §4

[3] = tested on: rat brain homogenate proteins; assay: In vitro equilibrium dialysis (RED) protein binding, rat brain homogenate; conditions: male, Sprague-Dawley, rat, brain homogenate, 4 h, 10 μM, pH 7.4
Experimental: as §1, §2, §3, §4

Row | recovery at 4 h, 10 μM [1] | recovery at 4 h, 10 μM [2] | Unbound (%) (rat plasma proteins) | fraction unbound at 4 h, 10 μM ([1]; plasma) | fraction unbound at 4 h, 10 μM ([2]; brain homogenate) | Unbound (%) [3] | Structure (SMILES)
1 | 93.7 ± 3.89% | 125 ± 1.54% |  |  |  |  | C=C[C@H]1C[N@@]2CC[C@H]1C[C@@H]2[C@@H](O)c1ccnc2ccc(OC)cc12 [quinidine]
2 | 112.7 ± 0.76% | 132 ± 0.57% | 0.8 ± 0.02% | 0.008 | 0.827 | 82.7 ± 4.98% | CC(=O)CC(c1ccccc1)c1c(O)c2ccccc2oc1=O (centres unmarked) [warfarin]
